# Patent publication US10690673B2, “Method of treating cancer metastasis by CDK 4/6 inhibitors” (Mayo Foundation for Medical Education and Research, priority 2016, dated 2020)
# Where a SMILES comes first, the peptide text is derived from it. The star is where a group is joined. Cbz = O=C(OCc1ccccc1)*
# Tests used:
# SNAIL1 polypeptide = SNAIL1 polypeptide level by Western blotting in breast cancer cells; assay type: cell-based, human; conditions: for SNAIL1 polypeptide level: 0, 3, 6, or 9 μM for 18 hours
# Method: FIG. 3. DUB3 deubiquitinates and stabilizes SNAIL1. (A) Cell extracts were prepared from 4 luminal and 4 basal like subtypes of human breast cancer cell lines, and expression of SNAIL1, DUB3, E-cadherin and vimentin was analyzed by Western blotting. (B) MDA-MB-231 cells stably expressing control or DUB3 shRNAs were generated and Western blot was performed with the indicated antibodies. (C) Total RNA was isolated from cells in (B). mRNAs encoding SNAIL and β-actin were determined by reverse transcription-polymerase chain reaction (RT-PCR) and agarose gel electrophoresis. (D) MDA-MB-231 cells stably expressing control or DUB3 shRNAs were treated with vehicle or MG-132 (10 μM) for 1 hour and Western blot was performed with the indicated antibodies. (E-F) T47D and MCF-7 cells were infected with virus containing vector (“V”), FLAG-DUB3 (“WT”) and the C89S (“CS”) mutant, and Western blots were performed. (F) CHX pulse-chase assay was performed in cells. (G) Cells were cotransfected with indicated plasmids and treated with MG132 for 6 hours before cell lysates were boiled and immunoprecipitated with HA beads, and the polyubiquitylated SNAIL1 polypeptide was detected by an anti-ubiquitin antibody. (H) Cells were transfected with HA-SNAIL1 and treated with MG132 for 6 hours. Cell lysates were boiled and immunoprecipitated with HA beads and incubated with GST, GST-DUB3 or GST-DUB3 C89S mutant. The polyubiquitylated SNAIL1 polypeptide was detected by an anti-ubiquitin antibody.
# FIG. 10. Ser41 phosphorylation regulates DUB3 activity. (A) Cells transfected with indicated constructs were lysed and co-immunoprecipitations experiments were performed using anti-FLAG antibody. The immunoprecipates were eluted by FLAG-peptide containing buffer and the activities of DUB3 were assayed using Ubiquitin-AMC (Ub-AMC) as a substrate. (B) The eluates were detected with anti-FLAG antibody. (C) MDA-MB-231 cells were treated with either vehicle or […] for indicated periods. Western blotting was performed with indicated antibodies.
# FIG. 11. Phosphorylation of Ser41 regulates DUB3 activity. (A) Cells were cotransfected with indicated plasmids and treated with vehicle or CDK 4/6 inhibitor (PD0332991 10 μM). Cell lysates were boiled and immunoprecipitated with HA beads and immunoblotted as indicated. […] (G) The migratory abilities of cells were analyzed by a wound healing assay. […] After 12 weeks, mice were sacrificed and the development of lung metastases was determined by counting and quantifying lung metastatic nodules.
# FIG. 14. […] (B) MDA-MB-231 cells were treated with vehicle or LY2835219 and the migration ability of cells was measured by a wound healing assay. […] (D) HCC1806 cells were treated with vehicle or LY2835219 and the migration ability of cells was measured by a wound healing assay. […]
# [1] = system: human breast tumor biopsy sample HCI001; test: Patient-derived xenograft (PDX) model of triple negative breast cancer, tumor growth and metastasis; assay type: in vivo, mice; conditions: 100 mg/kg daily, PO, five weeks; saline group 6/8; significantly decreased
# Method: FIG. 13. CDK 4/6 inhibition inhibits cancer metastasis. (A) DUB3 and SNAIL1 polypeptide levels in a subset of human breast tumor biopsy samples were examined. (B) Passage 3 tumors from HCI001 were used to test the effect of PD0332991 on metastasis. When primary tumors reached 100-150 mm^3, mice were randomized and treated either with saline or PD0332991 for five weeks (n=8). Tumor weights were measured after mice were sacrificed (B). Tumor volumes were measured every week (C). After mice were sacrificed, liver (D-F) and lung (G-I) metastatic nodules were examined macroscopically or detected in paraffin-embedded sections stained with H&E. (J) The working model to illustrate that CDK 4/6 phosphorylation-dependent activation of DUB3 regulates EMT and metastasis through SNAIL1.
# The results provided herein indicate that DUB3 stabilizes SNAIL1 polypeptide through deubiquitinating SNAIL1 and CDK 4/6 activity is involved in SNAIL1 stabilization. […] DUB3 and SNAIL1 levels were detected and correlated in a subset of human breast cancer samples from the BEAUTY project (FIG. 13A). […]
# A patient-derived xenograft model was generated from an estrogen receptor-negative, progesterone receptor-negative, human epidermal growth factor receptor 2-negative (ER^−PR^−_HER2^−) high-grade invasive ductal carcinoma. […] Tumor volumes were measured once per week. […] Data were analyzed using Student's t test. […]
# [2] = system: phosphorylation of DUB3 at Ser41; test: Phosphorylation of DUB3 at Ser41 in transfected cells (anti-FLAG immunoprecipitation, Western blotting); assay type: cell-based; conditions: cells transfected with FLAG-DUB3 WT
# Method: FIG. 8. CDK 4/6 phosphorylates DUB3 at Ser 41. (A) DUB3 phosphorylation sites were analyzed by mass spectrometry. If the Ascore values for Ascore Seq_A are above 19, then the location is considered confidently assigned (indicated with pink cell backgrounds). (B) Cells were transfected with indicated plasmids and cell lysates were subjected to immunoprecipitation with an anti-FLAG antibody and Western blotting was performed. (C) Cells were transfected with indicated plasmids and were treated with vehicle, or pan-CDK inhibitor (Roscovitine 5 μM) or CDK 4/6 inhibitor (PD0332991 10 μM). The phosphorylation of Ser41 was examined. (D) CDK 4/6 phosphorylates DUB3 in vitro. Bacterially expressed GST and GST-DUB3 fusion polypeptides were incubated with active CDK4 or CDK6 in the presence of [γ-32P]ATP. Polypeptides were resolved by SDS-PAGE, and phosphorylated polypeptides were visualized with autoradiography. (E) Vector or FLAG-DUB3 were transfected in cells stably expressing indicated shRNA. The phosphorylation of Ser41 in DUB3 was then examined.
# FIG. 15. CDK1 phosphorylates DUB3 at Ser41 in vitro, and the treatment of pan-CDK inhibitor Roscovitine decreased phosphorylation of DUB3. (A) Bacterially-expressed GST-DUB3 WT and GST-DUB3 S41A fusion polypeptides were incubated with active CDK4, CDK6, CDK1, or CDK2 in the presence of [γ-^32P]ATP. […]
structure (smiles),measurement,setting,value
Nc1nc(N)c(N=O)c(OCC2CCCCC2)n1 [DU6027],SNAIL1 polypeptide level,"SNAIL1 polypeptide; BT549 cells, FIG. 16",decreases
same,SNAIL1 polypeptide level,"SNAIL1 polypeptide; MDA-MB-231 cells, FIG. 17",decreases
CC(C)C[C@@H](C=O)NC(=O)[C@H](CC(C)C)NC(=O)[C@H](CC(C)C)NC(=O)OCc1ccccc1 [MG-132] (Cbz-Leu-Leu-Leu-aldehyde),effect on decreased SNAIL1 polypeptide level in cells depleting DUB3,"SNAIL1 polypeptide; MDA-MB-231 cells stably expressing DUB3 shRNAs, MG-132 10 μM for 1 hour, FIG. 3D",rescue
same,effect on PD0332991-induced reduction of SNAIL1 polypeptide level,"SNAIL1 polypeptide; MDA-MB-231 cells, PD0332991 in the presence of MG-132, FIG. 11D",reversed
"CC(=O)c1c(C)c2cnc(Nc3ccc(N4CCNCC4)cn3)nc2n(C2CCCC2)c1=O [PD0332991, Palbociclib]",liver metastasis (mice with metastasis / mice in group),[1],1/8
same,lung metastasis (mice with metastasis / mice in group),[1],2/8
CC[C@H](CO)Nc1nc(NCc2ccccc2)c2ncn(C(C)C)c2n1 [Roscovitine],phosphorylation of DUB3 at Ser41,"[2]; Example 11, FIG. 15B, concentration not given",dramatically reduced
same,phosphorylation of DUB3 at Ser41,"[2]; Roscovitine 5 μM, FIG. 8C",dramatically reduced
